The values below come from patent US8431540B2, “Modified lysine-mimetic compounds” (Zealand Pharma A/S, priority 2005, dated 2013).

The test system of series [1] is C6 glioma cells overexpressing connexin43. The experiment in a line: In vitro cell swelling and dye uptake model (simulated ischemia). It counts as cell-based. As for the experimental part: In this experiment, the effect of Compound 2 on calcein dye-uptake induced by metabolic inhibition in cultured C6 glioma cells overexpressing connexin43 was studied. Cells were incubated under control conditions and during simulated ischemia (SI) for 40 minutes in the presence of calcein (200 μM). Following incubation the cells were subjected to epifluorescence microscopy to determine the uptake of calcein. Incubation of C6 cells in SI medium increased dye-uptake to 5-fold above control values.

Another series deals with Male CD-1 mice. The experiment in a line: Calcium-induced arrhythmia model (time to AV block after CaCl2 infusion). It counts as in vivo. The conditions noted are these: compound IV 3 min before CaCl2 infusion (100 mg/kg/min), saline control 62-78. The method, then:
Peptides suitable for administration to cardiac cells can be identified in an in vivo model of calcium-induced arrhythmias according to the model of Lynch et al. (1981) J Cardiovasc. Pharmacol. 3: 49-60. Male CD-1 mice are anaesthetized with Ketamine (75 mg/kg) and medetomidine (1 mg/kg) IP. An i.v. cannula is inserted into the tail vein. A lead II ECG signal is recorded continuously by positioning stainless steel ECG electrodes on the right forelimb and […]. The ground electrode is placed on the right hind limb. The signal is amplified and filtered using Gould physiograph components and po-ne-mah data acquisition software. After a 90 sec equilibration period test compound is injected into the tail vein (over 30 seconds). Mice pre-treated with vehicle are tested as control animals. The injection volume is 100 μl/30 g mice in all experiments. Infusion of CaCl2 (30 mg/mL, 0.1 mL/min/30 g mice, 100 mg/kg/min) is started 3 min after IV administration of drug or vehicle (0.9% saline). The time lag to onset of cardiac conduction block is determined as the time from the start of CaCl2 infusion until the first arrhythmic event occurred. The first conduction block is defined as the first RR-interval, larger than or equal to 3 times one RR-interval from the pre-treatment period. The first arrhythmic event occurring is either a second degree AV-block (intermittent failure of the AV conduction characterized by a P-wave without the concomitant QRS complex) or a second degree SA block (prolonged RR-interval and a QRS-complex without a preceding P-wave). Responses are expressed relative to the time until 2nd degree AV-block occurred in vehicle treated mice.
The anti-arrhythmic effect of compounds according to the present teachings was tested in a model of calcium-induced arrhythmias according to the model of Lynch et al., J. Cardiovasc. Pharmacol. (1981), 3: 49-60. Male CD-1 mice were anaesthetized with Ketamine (75 mg/kg) and medetomidine (1 mg/kg) IP. An i.v. cannula was inserted into the tail vein. A lead II ECG signal was recorded continuously by positioning stainless steel ECG electrodes on the right forelimb and […]. The ground electrode was placed on the right hind limb. The signal was amplified and filtered using Gould physiograph components and po-ne-mah data acquisition software. After a 90 sec equilibration period test compound was injected into the tail vein (over 30 seconds). Mice pre-treated with vehicle (0.9% saline) were tested as control animals. The injection volume was 100 μl/30 g mice in all experiments. Infusion of CaCl2 (30 mg/mL, 0.1 mL/min/30 g mice, 100 mg/kg/min) was started 3 min after IV administration of drug or vehicle. The time lag to onset of cardiac conduction block was determined as the time from the start of CaCl2 infusion until the first arrhythmic event occurred. The first conduction block was defined as the first RR-interval, larger/or equal to, 3 times one RR-interval from the pre-treatment period. The first arrhythmic event occurring was either a second degree AV-block (intermittent failure of the AV conduction characterized by a P-wave without the concomitant QRS complex) or a second degree SA block (prolonged RR-interval and a QRS-complex without a preceding P-wave).
Mice pre-treated with vehicle (0.9% saline) were tested on all days as a measure for control level in untreated animal. Injection volume was 100 μL in all experiments. The time lag to onset of arrhythmias was determined as the time from the start of CaCl2 infusion until the first event of conduction block defined as intermittent failure of the SA or AV conduction characterized by delayed P-wave activation (SA block) or by a P-wave without the concomitant QRS complex (AV block). The time lag to onset of AV block is given below in Table 2.

As to `NCC(=O)N1C[C@H](NC(=O)c2ccccc2)C[C@H]1C(=O)O` [Compound 2, (2S4R)1-(2-Amino-acetyl)-4-benzoylamino-pyrrolidine-2-carboxylic acid], the “half-life in male rat liver microsomes” value was “greater than 30 minutes”. Also, in series [1] (100 μM compound, simulated ischemia 40 minutes, calcein 200 μM, p<0.05 vs. vehicle), the “relative reduction of the SI inducible calcein dye-uptake response” value is recorded as 32%. Besides, the “calcein dye-uptake during simulated ischemia” value in series [1] (C6 glioma cells overexpressing connexin43, simulated ischemia 40 minutes) was “dose-dependently inhibited”. In addition, in series [1] (C6 glioma cells, control cells exhibited cell swelling), the “cell swelling during the 40 min stress period” value is given as “did not”. The “Time to AV block” value in the series with Male CD-1 mice amounted to 134.7 s.
